# Patent US20200085839A1, “COMBINATION OF IMMUNOTHERAPEUTICS AND BISFLUOROALKYL-1,4-BENZODIAZEPINONE COMPOUNDS FOR TREATING LYMPHOMAS” (Ayala Pharmaceuticals Inc., priority 2018, published 2020)
# Like-named read-outs stand apart in the source and are kept apart here.
# Columns and labels:
# [1] = tested on: RPMI-8226 human multiple myeloma cell line; test: Combination index (Chou and Talalay) of Compound (1) with BCMA-CAR-T; assay type: cell-based; details: Compound (1) 10-80 nM with BCMA-CAR-T 10^9 cells
# Description: (§1) Drug interaction analysis and the confirmation of synergism is determined by the method of Chou and Talalay. Linear regression analysis of dose-response data is performed using Calcusyn 1.2 software (Biosoft, Cambridge, United Kingdom) to calculate a combination index (CI) for each individual drug combination. To ensure valid statistical analysis, only experimental data for which the linear correlation coefficient of the median-effect plot was more than 0.9 are included. CI values are defined as: […]
# (§2) The combination of Compound (1) with BCMA-CAR-T in models of human multiple myeloma in vitro lead to synergistic cell killing. Specifically, Compound (1) when used at concentrations between 10-80 nM (concentrations that are relevant in patients) in combination with BCMA-CAR-T at concentrations of 10^9 cells produce synergistic cell killing in the U266 and RPMI-8226 human multiple myeloma cell lines.
# [2] = tested on: U266 human multiple myeloma cell line; test: as above; assay type: cell-based; details: Compound (1) 10-80 nM with BCMA-CAR-T 10^9 cells
# Description: as §1, §2
# DB cells (DLBCL) = test: Cell surface BCMA by FACS; assay type: cell-based, human; details: for EC50: Homo sapiens
# Description: (§3) […] cell lines, comprising 9 subtypes of lymphomas (see Table 1), were seeded at 1×10^5 cells/well in a total volume of 250 μl into a 96-well plate. The cells were cultured in RPMI medium supplemented with 10% FCS. Compound (22) was added to the cell cultures at a concentration of 10 μM, 1 μM, 100 nM, 10 nM, 1 nM, 100 pM, 10 pM, 1 pM, and 100 fM, and cell lines (8 from Hadassah Medical Center, 31 from Eurofins) were incubated at 37° C. for 24 hours with Compound (22). Following incubation, the cells were collected and BCMA levels were evaluated on the cell surface for cell-bound BCMA. Cells were stained with an anti-BCMA antibody (PE anti-human 19F2 BCMA, Biolegend), and cell surface BCMA levels were determined by FACS analysis (Mean Fluorescence Intensity. Soluble BCMA levels were analyzed by ELISA (Human BCMA/TNFRSF17 DuoSet kit: R&D Systems).
# DOHH-2 cells (DLBCL) = test: Cell surface BCMA by FACS; assay type: cell-based, human; details: for EC50: Homo sapiens
# Description: as §3
# [3] = tested on: Daudi cells (Burkitt's Lymphoma); test: Cell surface BCMA by FACS; assay type: cell-based, human; details: for EC50: Homo sapiens
# Description: as §3
# [4] = tested on: EB-3 cells (Burkitt's Lymphoma); test: Cell surface BCMA by FACS; assay type: cell-based, human; details: for EC50: Homo sapiens
# Description: as §3
# [5] = tested on: H9 cells (Cutaneous T-cell Lymphoma); test: Cell surface BCMA by FACS; assay type: cell-based, human; details: for EC50: Homo sapiens
# Description: as §3
# HT cells (DLBCL) = test: Cell surface BCMA by FACS; assay type: cell-based, human; details: for EC50: Homo sapiens
# Description: as §3
# [6] = tested on: Jeko-1 cells (Mantle Cell Lymphoma); test: Cell surface BCMA by FACS; assay type: cell-based, human; details: for EC50: Homo sapiens
# Description: as §3
# [7] = tested on: L-248 cells (Hodgkin's Lymphoma); test: Cell surface BCMA by FACS; assay type: cell-based, human; details: for EC50: Homo sapiens
# Description: as §3
# [8] = tested on: MC-116 cells (B-cell Lymphoma); test: Cell surface BCMA by FACS; assay type: cell-based, human; details: for EC50: Homo sapiens
# Description: as §3
# [9] = tested on: MHHH-PREB-1 cells (B-cell Lymphoma); test: Cell surface BCMA by FACS; assay type: cell-based, human; details: for EC50: Homo sapiens, B-cell
# Description: as §3
# [10] = tested on: Namalwa cells (Burkitt's Lymphoma); test: Cell surface BCMA by FACS; assay type: cell-based, human; details: for EC50: Homo sapiens
# Description: as §3
# [11] = tested on: REC-1 cells (Mantle Cell Lymphoma); test: Cell surface BCMA by FACS; assay type: cell-based, human; details: for EC50: Homo sapiens
# Description: as §3
# [12] = tested on: RPMI-6666 cells (Hodgkin's Lymphoma); test: Cell surface BCMA by FACS; assay type: cell-based, human; details: for EC50: Homo sapiens
# Description: as §3
# [13] = tested on: Ramos cells (Burkitt's Lymphoma); test: Cell surface BCMA by FACS; assay type: cell-based, human; details: for EC50: Homo sapiens
# Description: as §3
# [14] = tested on: SUDHL-4 (Eurofins) cells (DLBCL); printed SUDHL in Table 1; test: Cell surface BCMA by FACS; assay type: cell-based, human; details: for EC50: Homo sapiens, SU-DHL-4
# Description: as §3
# [15] = 24 h, read-out: BCMA (Mean Fluorescence Intensity) EC50
compound,measurement,setting,value
"CN1C(=O)[C@@H](NC(=O)[C@H](CCC(F)(F)F)[C@H](CCC(F)(F)F)C(N)=O)N=C(c2ccccc2)c2ccccc21 [Compound 1, (2R,3S)—N-((3S)-1-methyl-2-oxo-5-phenyl-2,3-dihydro-1H-1,4-benzodiazepin-3-yl)-2,3-bis(3,3,3-trifluoropropyl)succinamide]","cell killing, combination index (CI) class",[1],synergistic (0.3 < CI ≤ 0.9)
same,"cell killing, combination index (CI) class",[2],synergistic (0.3 < CI ≤ 0.9)
"Cc1cccc2c1NC(=O)[C@@H](NC(=O)[C@H](CCC(F)(F)F)[C@H](CCC(F)(F)F)C(N)=O)N=C2c1cccc(F)c1 [Compound (22), (2R,3S)—N-((3S)-5-(3-fluorophenyl)-9-methyl-2-oxo-2,3-dihydro-1H-1,4-benzodiazepin-3-yl)-2,3-bis(3,3,3-trifluoropropyl)succinamide]",mBCMA (MFI) Fold Increase,DB cells (DLBCL),4.1 fold
same,BCMA (Mean Fluorescence Intensity) 1 nM Compound (22),"DB cells (DLBCL); 1 nM, 24 h",870
same,BCMA (Mean Fluorescence Intensity) 100 nM Compound (22),"DB cells (DLBCL); 100 nM, 24 h",1827
same,cell-bound BCMA,DB cells (DLBCL); FIG. 9A,increased cell-bound BCMA
same,EC50,DB cells (DLBCL); [15],4.9 nM
same,EC50,DB cells (DLBCL); read-out: mBCMA (MFI) EC50,4.9 nM
same,mBCMA (MFI) Fold Increase,DOHH-2 cells (DLBCL),4.4 fold
same,BCMA (Mean Fluorescence Intensity) 1 nM Compound (22),"DOHH-2 cells (DLBCL); 1 nM, 24 h",8033
same,BCMA (Mean Fluorescence Intensity) 100 nM Compound (22),"DOHH-2 cells (DLBCL); 100 nM, 24 h",12620
same,EC50,DOHH-2 cells (DLBCL); [15],0.87 nM
same,EC50,DOHH-2 cells (DLBCL); read-out: mBCMA (MFI) EC50,0.87 nM
same,mBCMA (MFI) Fold Increase,[3],4.2 fold
same,BCMA (Mean Fluorescence Intensity) 1 nM Compound (22),"[3]; 1 nM, 24 h",1421
same,BCMA (Mean Fluorescence Intensity) 100 nM Compound (22),"[3]; 100 nM, 24 h",2242
same,cell-bound BCMA,[3]; FIG. 7A,increased cell-bound BCMA
same,EC50,[3]; [15],4.9 nM
same,EC50,[3]; read-out: mBCMA (MFI) EC50,4.9 nM
same,mBCMA (MFI) Fold Increase,[4],0.5 fold
same,BCMA (Mean Fluorescence Intensity) 1 nM Compound (22),"[4]; 1 nM, 24 h",549
same,BCMA (Mean Fluorescence Intensity) 100 nM Compound (22),"[4]; 100 nM, 24 h",449
same,EC50,[4]; [15],> 10000 nM
same,EC50,[4]; read-out: mBCMA (MFI) EC50,> 10000 nM
same,mBCMA (MFI) Fold Increase,[5],1.1 fold
same,BCMA (Mean Fluorescence Intensity) 1 nM Compound (22),"[5]; 1 nM, 24 h",811
same,BCMA (Mean Fluorescence Intensity) 100 nM Compound (22),"[5]; 100 nM, 24 h",900
same,EC50,[5]; [15],> 10000 nM
same,EC50,[5]; read-out: mBCMA (MFI) EC50,> 10000 nM
same,mBCMA (MFI) Fold Increase,HT cells (DLBCL),3.2 fold
same,BCMA (Mean Fluorescence Intensity) 1 nM Compound (22),"HT cells (DLBCL); 1 nM, 24 h",488
same,BCMA (Mean Fluorescence Intensity) 100 nM Compound (22),"HT cells (DLBCL); 100 nM, 24 h",895
same,EC50,HT cells (DLBCL); [15],2.3 nM
same,EC50,HT cells (DLBCL); read-out: mBCMA (MFI) EC50,2.3 nM
same,EC50,"[6]; JeKo-1, read-out: mBCMA (MFI) EC50",1.2 nM
same,EC50,"[6]; Jeko-1, 24 h, read-out: BCMA (Mean Fluorescence Intensity) EC50",1.2 nM
same,mBCMA (MFI) Fold Increase,[6]; Jeko-1,7.4 fold
same,BCMA (Mean Fluorescence Intensity) 1 nM Compound (22),"[6]; Jeko-1, 1 nM, 24 h",1654
same,BCMA (Mean Fluorescence Intensity) 100 nM Compound (22),"[6]; Jeko-1, 100 nM, 24 h",2885
same,mBCMA (MFI) Fold Increase,[7],1.0 fold
same,BCMA (Mean Fluorescence Intensity) 1 nM Compound (22),"[7]; 1 nM, 24 h",440
same,BCMA (Mean Fluorescence Intensity) 100 nM Compound (22),"[7]; 100 nM, 24 h",445
same,EC50,[7]; [15],> 10000 nM
same,EC50,[7]; read-out: mBCMA (MFI) EC50,> 10000 nM
same,mBCMA (MFI) Fold Increase,[8],4.2 fold
same,BCMA (Mean Fluorescence Intensity) 1 nM Compound (22),"[8]; 1 nM, 24 h",915
same,BCMA (Mean Fluorescence Intensity) 100 nM Compound (22),"[8]; 100 nM, 24 h",1850
same,EC50,"[8]; MC116, 24 h, read-out: BCMA (Mean Fluorescence Intensity) EC50",1.9 nM
same,EC50,"[8]; MC116, read-out: mBCMA (MFI) EC50",1.9 nM
same,mBCMA (MFI) Fold Increase,[9],4.5 fold
same,BCMA (Mean Fluorescence Intensity) 1 nM Compound (22),"[9]; 1 nM, 24 h",1363
same,BCMA (Mean Fluorescence Intensity) 100 nM Compound (22),"[9]; 100 nM, 24 h",1830
same,EC50,[9]; [15],1.7 nM
same,EC50,[9]; read-out: mBCMA (MFI) EC50,1.7 nM
same,mBCMA (MFI) Fold Increase,[10],2.0 fold
same,BCMA (Mean Fluorescence Intensity) 1 nM Compound (22),"[10]; 1 nM, 24 h",1395
same,BCMA (Mean Fluorescence Intensity) 100 nM Compound (22),"[10]; 100 nM, 24 h",1690
same,EC50,[10]; [15],10.7 nM
same,EC50,[10]; read-out: mBCMA (MFI) EC50,10.7 nM
same,mBCMA (MFI) Fold Increase,[11],1.0 fold
same,BCMA (Mean Fluorescence Intensity) 1 nM Compound (22),"[11]; 1 nM, 24 h",217
same,BCMA (Mean Fluorescence Intensity) 100 nM Compound (22),"[11]; 100 nM, 24 h",243
same,EC50,"[11]; Rec1, 24 h, read-out: BCMA (Mean Fluorescence Intensity) EC50",> 10000 nM
same,EC50,"[11]; Rec1, read-out: mBCMA (MFI) EC50",> 10000 nM
same,mBCMA (MFI) Fold Increase,[12],6.6 fold
same,BCMA (Mean Fluorescence Intensity) 1 nM Compound (22),"[12]; 1 nM, 24 h",971.5
same,BCMA (Mean Fluorescence Intensity) 100 nM Compound (22),"[12]; 100 nM, 24 h",3287.5
same,EC50,[12]; [15],7 nM
same,EC50,[12]; read-out: mBCMA (MFI) EC50,7 nM
same,mBCMA (MFI) Fold Increase,[13],10.8 fold
same,BCMA (Mean Fluorescence Intensity) 1 nM Compound (22),"[13]; 1 nM, 24 h",4899
same,BCMA (Mean Fluorescence Intensity) 100 nM Compound (22),"[13]; 100 nM, 24 h",10264
same,EC50,[13]; [15],1.4 nM
same,EC50,[13]; read-out: mBCMA (MFI) EC50,1.4 nM
same,EC50,"[14]; SUDHL-4 (Eurofins), read-out: mBCMA (MFI) EC50",1.6 nM
same,EC50,"[14]; SUDHL, 24 h, read-out: BCMA (Mean Fluorescence Intensity) EC50",1.6 nM
same,mBCMA (MFI) Fold Increase,[14]; SUDHL-4 (Eurofins),9.1 fold
same,BCMA (Mean Fluorescence Intensity) 1 nM Compound (22),"[14]; SUDHL, 1 nM, 24 h",7568
same,BCMA (Mean Fluorescence Intensity) 100 nM Compound (22),"[14]; SUDHL, 100 nM, 24 h",20540
